From US10253071B2, “Selectin inhibitors, composition, and uses related thereto” (Beth Israel Deaconess Medical Center, Inc., priority 2014, dated 2019)
Square brackets hold non-standard residues; d marks the D form. Peptide text beside a SMILES is read from it. * marks the point of attachment. X1 = CC(=O)N[C@@H]1[C@@H](O[C@@H]2O[C@H](CO)[C@H](O)[C@H](O)[C@H]2O)[C@@H](O)[C@@H](CO[C@@H]2O[C@H](CO)[C@@H](O[C@@H]3O[C@H](CO)[C@H](O)[C@H](O[C@]4(C(=O)O)C[C@H](O)[C@@H](NC(C)=O)[C@H]([C@H](O)[C@H](O)CO)O4)[C@H]3O)[C@H](O[C@@H]3O[C@@H](C)[C@@H](O)[C@@H](O)[C@@H]3O)[C@H]2NC(C)=O)O[C@@H]1*; Phe(4-CH2SO3H) = N[C@@H](Cc1ccc(CS(=O)(=O)O)cc1)C(=O)O; Mca = COc1ccc2c(CC(=O)*)cc(=O)oc2c1

Molecular target: T1, Recombinant mouse P-selectin Fc chimera (Mus musculus, UniProt Q01102)
T1 sequence (Q01102 42-768): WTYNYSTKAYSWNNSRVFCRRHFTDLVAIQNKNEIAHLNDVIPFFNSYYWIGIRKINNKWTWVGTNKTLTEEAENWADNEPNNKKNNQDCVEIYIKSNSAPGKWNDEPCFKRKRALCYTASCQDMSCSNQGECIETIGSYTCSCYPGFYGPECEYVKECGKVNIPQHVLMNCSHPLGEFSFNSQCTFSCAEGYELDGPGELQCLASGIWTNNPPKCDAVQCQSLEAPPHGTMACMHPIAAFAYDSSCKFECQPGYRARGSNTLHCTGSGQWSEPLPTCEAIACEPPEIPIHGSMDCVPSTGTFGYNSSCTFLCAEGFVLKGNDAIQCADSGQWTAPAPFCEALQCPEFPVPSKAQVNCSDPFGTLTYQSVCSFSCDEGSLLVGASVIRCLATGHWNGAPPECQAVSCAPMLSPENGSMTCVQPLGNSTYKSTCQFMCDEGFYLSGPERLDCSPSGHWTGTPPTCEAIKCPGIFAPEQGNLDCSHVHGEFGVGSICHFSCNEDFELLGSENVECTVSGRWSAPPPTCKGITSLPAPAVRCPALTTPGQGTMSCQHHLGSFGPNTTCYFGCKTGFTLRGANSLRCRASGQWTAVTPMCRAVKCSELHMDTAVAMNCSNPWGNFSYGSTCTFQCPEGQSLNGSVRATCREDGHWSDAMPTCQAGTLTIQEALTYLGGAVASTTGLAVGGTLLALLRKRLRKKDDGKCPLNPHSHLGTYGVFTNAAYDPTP
Test: Flow cytometry, inhibition of mouse P-selectin Fc chimera binding to murine neutrophils
Assay type: cell-based
Conditions: murine PMN; chimera 2 μg/mL; read-out: IC50, P-selectin dependent interactions, murine PMN
Protocol: Flow cytometry was used to characterize the ability of GSnP-6 to block binding of selectin-IgG chimeras to murine and human leukocytes. Recombinant mouse P- or L-selectin Fc chimera (2 μg/mL) was incubated with murine neutrophils and GSnP-6 (0-30 μM). Likewise, recombinant human P-selectin or L-selectin Fc chimera were incubated with human peripheral blood neutrophils and monocytes, as well as the human U937 cell line in the presence of GSnP-6 (0-30 μM). Binding of selectin-IgG chimeras was detected with PE-conjugated anti-IgG antibody, quantified as mean fluorescent intensity, and plotted as percent inhibition. Specificity was confirmed with selectin-specific blocking antibodies.

COc1ccc2c(CC(=O)NCCCC[C@H](N)C(=O)N[C@@H](CCC(=O)O)C(=O)N[C@@H](Cc3ccc(CS(=O)(=O)O)cc3)C(=O)N[C@@H](CCC(=O)O)C(=O)N[C@@H](Cc3ccc(CS(=O)(=O)O)cc3)C(=O)N[C@@H](CC(C)C)C(=O)N[C@@H](CC(=O)O)C(=O)N[C@@H](Cc3ccc(CS(=O)(=O)O)cc3)C(=O)N[C@@H](CC(=O)O)C(=O)N[C@@H](Cc3ccccc3)C(=O)N[C@@H](CC(C)C)C(=O)N3CCC[C@H]3C(=O)N[C@@H](CCC(=O)O)C(=O)N[C@H](C(=O)N[C@@H](CCC(=O)O)C(=O)N3CCC[C@H]3C(=O)N[C@@H](CC(C)C)C(=O)O)[C@@H](C)O[C@H]3O[C@H](CO[C@@H]4O[C@H](CO)[C@@H](O[C@@H]5O[C@H](CO)[C@H](O)[C@H](O[C@]6(C(=O)O)C[C@H](O)[C@@H](NC(C)=O)[C@H]([C@H](O)[C@H](O)CO)O6)[C@H]5O)[C@H](O[C@@H]5O[C@@H](C)[C@@H](O)[C@@H](O)[C@@H]5O)[C@H]4NC(C)=O)[C@H](O)[C@H](O[C@@H]4O[C@H](CO)[C@H](O)[C@H](O)[C@H]4O)[C@H]3NC(C)=O)cc(=O)oc2c1 [GSnP-6] (H-K(Mca)E[Phe(4-CH2SO3H)]E[Phe(4-CH2SO3H)]LD[Phe(4-CH2SO3H)]DFLPET(X1)EPL-OH)
IC50: ~15 µM
